Assays:
[1] = cited from earlier work
[2] = system: ambulatory patients with NYHA class II or III CHF and iron deficiency; settings: after 24 weeks of treatment, IV FCM compared to saline; cited from earlier work
[3] = system: ambulatory patients with NYHA class II or III CHF and iron deficiency; assay: FAIR-HF plasma volume status (PVS) substudy: post-hoc analysis of calculated PVS and clinical congestion, IV FCM vs placebo; type: in vivo, human (patients); settings: for change from baseline in Hct / change from baseline in PVS / change from baseline in weight: mean±SD; for change from baseline in Hct: significant increase compared to placebo
Description: FAIR-HF is a multi-centre, randomized, double-blind trial including 459 ambulatory patients with NYHA class II or III CHF, a left ventricular ejection fraction (LVEF) ≤40% (NYHA II) or ≤45% (NYHA III), iron deficiency (ID) as defined by a ferritin <100 ug/l or 100 to 299 ug/l with a transferrin saturation (TSAT)<20%, and a hemoglobin (Hb) level between 9.5 and 13.5 g/dl. Patients were randomized in a 2:1 ratio to intravenous (IV) iron as ferric carboxymaltose (FCM; Ferinject®) or IV placebo (saline) weekly until iron repletion (correction phase), then 4 weekly until week 24 (maintenance phase). FCM was administered in doses of 200 mg (4 mL) weekly up to iron repletion (correction phase of variable duration depending on individual iron deficit). The calculated dose was rounded to the next 100 mg iron, i.e. the final dose may be 100 mg iron depending on the individual iron deficit. After the correction phase, FCM was administered monthly in doses of 200 mg until the 24th week (maintenance phase).
In the placebo group, during the correction phase, patients will receive the number of normal saline injections (4 mL weekly) corresponding to the calculated total iron dose needed according to the individual iron deficit. During the maintenance phase, placebo patients will receive 4 mL normal saline monthly. Regular assessments were done at weeks 4, 12, and 24.
The hematocrit value (Hct or Ht) and weight at randomization were used for plasma volume status (PVS) calculations and were available in 436 (95%) patients whose data were therefore used in this post-hoc analysis.
Actual plasma volume (PV) was calculated with the following equation that was derived by curve-fitting techniques using subjects' Hct and weight compared with PV values measured with gold standard radioisotope assays:
actual PV=([1−Hct]×[a+(b×weight [kg])])
where Hct is a fraction and a=1530 in males and 864 in females, and b=41 in males and 47.9 in females.
Ideal PV was calculated from the following well established formula:
where c=39 in males and 40 in females
Relative PVS, an index of the degree to which patients have deviated from their ideal PV, was subsequently calculated from the following equation:
PVS=([actual PV−ideal PV]/ideal PV)×100%
Patients were weighed and examined for signs and symptoms of congestion at randomization and at weeks 4, 12 and 24. The presence or absence of peripheral edema, pulmonary congestion (crackles, rales), and an S3 gallop (third heart sound) were recorded, as was the actual jugular venous pressure (JVP).
Data are presented as mean±SD, frequencies (%), or medians (interquartile range [IQR]). Intergroup comparisons were made using a Kruskall-Wallis analysis of variance (ANOVA), analysis of covariance (ANCOVA), Student t-test, Pearson χ2 test, or a Mann Whitney U-test as appropriate. Associations between variables were determined using logistic regression. A P-value <0.10 was used to enter and retain covariates into stepwise multivariable regression models.
To assess the impact of treatment assignment on PVS, comparisons of changes in PVS from baseline at 4, 12, and 24 weeks between the placebo and FCM group were evaluated by comparing the least square means at each visit from a repeated-measures model using an unstructured covariance structure and adjusting for the continuous baseline value and a visit x drug interaction. Changes over time for other variables were similarly determined.

[4] = cited from earlier work; remark: listed apart in the source
[5] = publications, e.g. Qunibi et al. 2011; cited from earlier work
[6] = week 4, significant reduction compared to placebo

polynuclear iron(III)-oxyhydroxide carboxypolymaltose (carboxymaltodextrin) [FCM]
dextran cross-reactivity ([1]; in vivo): no dextran cross-reactivity | tolerability of rapid infusion ([1]; up to 1000 mg of elemental iron over 15 min, intravenous): well tolerated | 6 minute walking distance (6MWD) [2]: significant improvements | NYHA class [2]: significant improvements | Patient Global Assessment (PGA) [2]: significant improvements | peripheral edema ([3]; FCM treatment compared to placebo (FIG. 2d)): improvement in peripheral edema | improvement in pulmonary edema ([3]; FCM treatment vs placebo, P=0.35): not evident | improvement in jugular venous distension ([3]; FCM treatment vs placebo, P=0.54): not evident | improvement in presence of an S3 gallop rhythm ([3]; FCM treatment vs placebo, P=1.00): not evident | time of maximal treatment effect on PVS ([3]; FCM vs placebo): 12 week | change from baseline in Hct ([3]; week 4): 2 ± 4% | change from baseline in PVS [3, 6]: −2.5±5.9% | change from baseline in weight [3, 6]: -0.2 ± 2.4 kg | change from baseline in weight ([3]; week 12, not significant compared to placebo): 0.2 ± 3.0 kg | change from baseline in Hct ([3]; week 12): 3 ± 4% | change from baseline in PVS ([3]; week 12, significant reduction compared to placebo): −3.9±6.8% | change from baseline in weight ([3]; week 24, not significant compared to placebo): 0.3 ± 3.2 kg | change from baseline in Hct ([3]; week 24): 3 ± 5% | change from baseline in PVS ([3]; week 24, significant reduction compared to placebo): −4.1±7.4% | stability of the iron-carbohydrate complex ([4]; compared with ferric gluconate and iron sucrose): more stable than ferric gluconate or iron sucrose | pH of the complex ([4]; nearly neutral): 5.0-7.0 | peripheral edema as adverse event [5]: one of the most commonly occurring adverse events

— US20220054540A1, “Ferric Carboxymaltose In The Treatment Of Heart Failure And In The Treatment Of Congestion In Heart Failure” (Vifor (International) AG, priority 2018, published 2022)
